The values that follow come from US20080038267A1, “Treatment Of Cancer” (NEUTEC PHARMA LIMITED, priority 2004, published 2008).

In brackets after ≈: the same amount, converted by molar mass. Read-outs that look alike come from different tables or passages of the source.

The test system of data set [1] is HT29 cells. Description: Cell Titer Blue viability, drugs without Mycograb or Mycograb alone, HT29 cells. Conditions: for IC50: 5-FU tested plus 1 mg/ml Folinic acid. Format: cell-based, human. On the procedure:
(§1) Viable cells reduce resazurin to resorufin (pink).
(§2) Cell growth was evaluated as described above.
Human colon adenocarcinoma grade 11 cell line HT29, was obtained from ECACC (ECACC number 91072201).
The cell lines were split and the cells counted. […] The next day, the cells were observed under phase contrast microscopy to ensure they had adhered to the plates and the supernatant medium removed by aspiration. 100 μl of fresh complete RPMI medium containing increasing two fold concentrations of study drug (5-FU 4.5-2400 μg/ml plus 1 mg/ml Folinic acid or Oxaliplatin 1-500 μg/ml) or medium alone (Media+2.5% DMSO for 5-FU control) was then added to the wells.
Background: The colour change of resazurin is a common sign of viable cells or microbes.

Data set [2] relates to HT29 cells. Briefly: Checkerboard of Mycograb versus 5-FU/Folinic acid and/or Oxaliplatin, median effect analysis (CI), HT29 cells. Type of data set: cell-based, human. Conditions: for Dm: median effect analysis (Calcusyn).
Source text: as §1
CI values are shown for Fa50.
(§3) The cell lines were split and the cells counted.
as §3

Data set [3] concerns Hsp 90 in multi-chaperone complexes derived from tumour cells. Conditions: higher than Hsp90 from normal cells (latent uncomplexed state); cited from earlier work.
Another data set deals with MCF7 cells. Briefly: Cell Titer Blue viability, single drug, MCF7 cells. Format: cell-based, human. On the procedure: (§4) Viable cells reduce resazurin to resorufin (pink). Cell growth was evaluated as described above. […] The cell lines were split and cells counted. […] The next day, the cells were observed under phase contrast microscopy to ensure they had adhered to the plates and the supernatant medium removed by aspiration.

The test system of a further data set is HS578T cells. Description: Cell Titer Blue viability, single drug, HS578T cells. Type of data set: cell-based, human. On the procedure:
as §4

The subject of a further data set is K562 cells. Description: Cell Titer Blue viability, single drug, K562 cells. The method, then: as §1, §2
K562 was established from pleural effusion of person with chronic myelogenous leukaemia in terminal blast crisis. […] The line used in these experiments was the K562B. […] K562B has been compared to K562A and K562 C, with respect to growth kinetics, cell surface protein markers, surface antigens, cytogenetics and hemoglobin production.
(§5) The cell lines were counted. […] Fresh medium containing either two-fold increasing concentrations of Mycograb® (1.5-200 μg/ml), or medium alone was then added to the wells. The plate was returned to the incubator for 48 hours following which the cell titre blue assay was carried out, or viable counts were determined using a haemocytometer.
(§6) The cell lines were counted. […] The plates were returned to the incubator for 48 hours following which cell titre blue assays were carried out.

For the next data set, the system named is KU-812 cells. Briefly: Cell Titer Blue viability, single drug, KU-812 cells. Conditions: Mycograb on its own at 50 μg/ml. On the procedure:
as §1, §2, §5, §6

Where [4] appears, read: K562 cells, single drug, 48 hour incubation.
The mark [5] stands for this setting: Homo sapiens, MCF7 cells, single drug, 48 hour incubation, read-out: IC50.
Setting [6] is: Homo sapiens, Hs-578T, HS578T cells, single drug, 48 hour incubation, read-out: IC50.

Consider `O=c1[nH]cc(F)c(=O)[nH]1` [5-FU, 5-Fluorouracil], for which the IC50 with HT29 cells [1] (Homo sapiens, HT-29, 48 hours, read-out: IC50) is 150 µg/mL; in the data set on HT29 cells [2] (Homo sapiens, HT-29, median effect analysis (Calcusyn), read-out: Dm) it was 297 µg/mL.
As to `C=CCNC1=C2C[C@@H](C)C[C@H](OC)[C@H](O)[C@@H](C)/C=C(\C)[C@H](OC(N)=O)[C@@H](OC)/C=C\C=C(/C)C(=O)NC(=CC1=O)C2=O` [17AAG, 17-allylamino, 17-desmethoxygeldanamycin], in data set [3], the “binding affinity for 17AAG, Hsp 90 in tumour-cell multi-chaperone complexes versus Hsp90 from normal cells” value was 100 fold.
As for `N.N.[Cl][Pt][Cl]` [Cisplatin], the IC50 came to 6 µg/mL with MCF7 cells (MCF7 cells, single drug, 48 hour incubation); 12.5 µg/mL in the data set on HS578T cells (HS578T cells, single drug, 48 hour incubation); 12.5 µg/mL in the data set on K562 cells (setting [4]).
Regarding `COc1cccc2c1C(=O)c1c(O)c3c(c(O)c1C2=O)C[C@@](O)(C(C)=O)C[C@@H]3O[C@H]1C[C@H](N)[C@H](O)[C@H](C)O1` [Daunorubicin], the IC50 in the data set with MCF7 cells (Homo sapiens, MCF7, 48 h) was 1 µg/mL (≈ 1.9 µM); in the data set on HS578T cells (Homo sapiens, Hs-578T, 48 h), 1 µg/mL (≈ 1.9 µM); with K562 cells (Homo sapiens, K562, 48 h), 0.75 µg/mL (≈ 1.42 µM).
As for `CC(=O)O[C@@]12CO[C@@H]1C[C@H](O)[C@@]1(C)C(=O)[C@H](O)C3=C(C)[C@@H](OC(=O)[C@H](O)[C@@H](NC(=O)OC(C)(C)C)c4ccccc4)C[C@@](O)([C@@H](OC(=O)c4ccccc4)[C@H]21)C3(C)C` [Docetaxel], the IC50 was found to be 225 µg/mL (≈ 279 µM) with MCF7 cells (setting [5]); 50 µg/mL (≈ 61.9 µM) in the data set with HS578T cells (setting [6]); 70 µg/mL (≈ 86.6 µM) with K562 cells (Homo sapiens, K562, 48 h).
Regarding `COc1cccc2c1C(=O)c1c(O)c3c(c(O)c1C2=O)C[C@@](O)(C(=O)CO)C[C@@H]3O[C@H]1C[C@H](N)[C@H](O)[C@H](C)O1` [Doxorubicin], the IC50 was 1.75 µg/mL (≈ 3.22 µM) in the data set with MCF7 cells (setting [5]); 1 µg/mL (≈ 1.84 µM) in the data set on HS578T cells (setting [6]); 1 µg/mL (≈ 1.84 µM) in the data set with K562 cells (Homo sapiens, K562, 48 h).
Take `NC(=O)NO` [Hydroxyurea]: the IC50 entry in the data set on K562 cells (setting [4]) was “never reached”.
Take `O=C1[O][Pt]2([NH][C@@H]3CCCC[C@H]3[NH]2)[O]C1=O` [Oxaliplatin]: the IC50 in the data set on HT29 cells [1] (48 hours) came out at 16 µg/mL. Besides, the Dm with HT29 cells [2] was 27.77.
For `CC(=O)O[C@H]1C(=O)[C@@]2(C)[C@H]([C@H](OC(=O)c3ccccc3)[C@]3(O)C[C@H](OC(=O)[C@H](O)[C@@H](NC(=O)c4ccccc4)c4ccccc4)C(C)=C1C3(C)C)[C@]1(OC(C)=O)CO[C@@H]1C[C@@H]2O` [Paclitaxel], the IC50 in the data set on MCF7 cells (setting [5]) was 225 µg/mL (≈ 263 µM); in the data set on K562 cells (Homo sapiens, K562, 48 h), 32 µg/mL (≈ 37.5 µM).

B1: Mycograb: anti-Hsp90 antibody disclosed in WO 01/76627, sequence of SEQ ID NO: 2, specific for epitope of peptide SEQ ID NO: 1 (protein)
chain: HMAEVQLVESGAEVKKPGESLRISCKGSGCIISSYWISWVRQMPGKGLEWMGKIDPGDSYINYSPSFQGHVTISADKSINTAYLQWNSLKASDTAMYYCARGGRDFGDSFDYWGQGTLVTVSSGGGGSGGGGSGGGGSDVVMTQSPSFLSAFVGDRITITCRASSGISRYLAWYQQAPGKAPKLLIYAASTLQTGVPSRFSGSGSGTEFTLTINSLQPEDFATYYCQHLNSYPLTFGGGTKVDIKRAA
Turning to B1, in the data set with HS578T cells (HS578T cells, increasing concentrations up to 400 mg/l), the “sensitivity of cell line to Mycograb alone” value was “insensitive”. The “reduction in cell viability” value came to 40% in the data set on K562 cells (K562 cells, Mycograb on its own at 12.5 μg/ml); 40% with KU-812 cells; 50% with HT29 cells [1] (Mycograb on its own at 125 μg/ml). Also, the Dm in the data set on HT29 cells [2] is on record as 96.47.
